According to the supplement of paper PMC11451515:

Test system: SEM cells
Assay: cell viability relative to DMSO control; higher = less cytotoxic
Settings: 48 h
In short: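 Leukemia cells (NOMO1 or SEM, 500 cells/well; P12-Ichikawa, 1000 cells/well) were seeded in 5 μl in 1536-well plates after at least four passages of adaptation to each medium. They received library compounds in DMSO by pin dosing, 11 threefold points from 47 μM to 0.79 nM. Luminescence with CellTiter-Glo One was read after 48 h at 37°C. Viability is stated per plate relative to DMSO wells, with cell-free wells as background.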

[1] = RPMI 5 mM glucose + 10% FBS, 0.000781 µM
[2] = RPMI 5 mM glucose + 10% FBS, 0.00234 µM
[3] = RPMI 5 mM glucose + 10% FBS, 0.00702 µM
[4] = RPMI 5 mM glucose + 10% FBS, 0.0211 µM
[5] = RPMI 5 mM glucose + 10% FBS, 0.0632 µM
[6] = RPMI 5 mM glucose + 10% FBS, 0.19 µM
[7] = RPMI 5 mM glucose + 10% FBS, 0.569 µM
[8] = RPMI 5 mM glucose + 10% FBS, 1.71 µM
[9] = RPMI 5 mM glucose + 10% FBS, 5.12 µM
[10] = RPMI 5 mM glucose + 10% FBS, 15.4 µM
[11] = RPMI 5 mM glucose + 10% FBS, 46.1 µM
[12] = HPLM + 10% dialyzed FBS, 0.000781 µM
[13] = HPLM + 10% dialyzed FBS, 0.00234 µM
[14] = HPLM + 10% dialyzed FBS, 0.00702 µM
[15] = HPLM + 10% dialyzed FBS, 0.0211 µM
[16] = HPLM + 10% dialyzed FBS, 0.0632 µM
[17] = HPLM + 10% dialyzed FBS, 0.19 µM
[18] = HPLM + 10% dialyzed FBS, 0.569 µM
[19] = HPLM + 10% dialyzed FBS, 1.71 µM
[20] = HPLM + 10% dialyzed FBS, 5.12 µM
[21] = HPLM + 10% dialyzed FBS, 15.4 µM
[22] = HPLM + 10% dialyzed FBS, 46.1 µM
[23] = RPMI 5 mM glucose + 10% dialyzed FBS, 0.000781 µM
[24] = RPMI 5 mM glucose + 10% dialyzed FBS, 0.00234 µM
[25] = RPMI 5 mM glucose + 10% dialyzed FBS, 0.00702 µM
[26] = RPMI 5 mM glucose + 10% dialyzed FBS, 0.0211 µM
[27] = RPMI 5 mM glucose + 10% dialyzed FBS, 0.0632 µM
[28] = RPMI 5 mM glucose + 10% dialyzed FBS, 0.19 µM
[29] = RPMI 5 mM glucose + 10% dialyzed FBS, 0.569 µM
[30] = RPMI 5 mM glucose + 10% dialyzed FBS, 1.71 µM
[31] = RPMI 5 mM glucose + 10% dialyzed FBS, 5.12 µM
[32] = RPMI 5 mM glucose + 10% dialyzed FBS, 15.4 µM
[33] = RPMI 5 mM glucose + 10% dialyzed FBS, 46.1 µM

SMILES	cell viability [1] [%]	cell viability [2] [%]	cell viability [3] [%]	cell viability [4] [%]	cell viability [5] [%]	cell viability [6] [%]	cell viability [7] [%]	cell viability [8] [%]	cell viability [9] [%]	cell viability [10] [%]	cell viability [11] [%]	cell viability [12] [%]	cell viability [13] [%]	cell viability [14] [%]	cell viability [15] [%]	cell viability [16] [%]	cell viability [17] [%]	cell viability [18] [%]	cell viability [19] [%]	cell viability [20] [%]	cell viability [21] [%]	cell viability [22] [%]	cell viability [23] [%]	cell viability [24] [%]	cell viability [25] [%]	cell viability [26] [%]	cell viability [27] [%]	cell viability [28] [%]	cell viability [29] [%]	cell viability [30] [%]	cell viability [31] [%]	cell viability [32] [%]	cell viability [33] [%]
C[C@H](NC(=O)[C@@H](O)c1cc(F)cc(F)c1)C(=O)N[C@@H]1C(=O)N(C)c2ccccc2-c2ccccc21	120	121	120	135	122	128	107	115	111	121	85.9	–	–	–	–	–	–	–	–	–	–	–	–	–	–	–	–	–	–	–	–	–	–
OC(=O)CNC(=O)\C1=C(/O)C2=CC=CC=C2N(CC3=CC=CC=C3)C1=O	98.1	103	117	112	17.9	104	107	94.7	106	97.4	88.9	106	104	105	125	54	99.2	116	104	111	102	106	121	116	111	106	89.3	117	119	114	105	86.3	109
CC[C@H](C)C(=O)O[C@H]1C[C@@H](C)\C=C2\C=C/[C@H](C)[C@H](CC[C@@H]3C[C@@H](O)CC(=O)O3)[C@@H]12	51.9	91.1	92.5	89.8	93.2	95	84.8	81.9	81.2	63.2	64.5	71.1	85.1	100	87.9	90.3	93.8	56.6	86	82.6	59.8	65.7	80.9	84.6	106	92.6	97	108	30	99.8	98	71.6	61.1
CN1CCN(CC1)C2=CC3=C([NH]C(=N3)C/4=C(\N)C5=C(F)C=CC=C5NC4=O)C=C2	52.6	65.8	50	54.7	37.4	44.5	36.2	25.6	19.5	9.89	8.79	39.9	48.9	44.5	45.4	31	46.1	36.6	26.5	21.4	17.3	5.83	40.7	58.3	43.3	41.6	31.2	34.6	32.7	27.2	19.8	10.5	5.75
COc1cc(N2CCN(C)CC2)ccc1Nc1nc(N)c(C(=O)c2c(Cl)cccc2Cl)s1	118	121	117	108	101	109	105	110	85.7	68.4	3.88	109	118	124	111	108	116	111	93.7	88.9	78.4	24.5	112	105	122	116	116	114	110	106	122	85.7	13.3
COc1cccc(N(C)C(=S)Oc2ccc3c(c2)CCCC3)n1	75	83	86.7	94	104	96.2	93.1	97	99.3	97.9	92.8	75.6	66.4	85.4	88.1	91.2	84	95.4	82.5	76.5	82.8	65.6	96.7	95.1	90.2	93.3	91.3	100	101	97.5	87.8	98.5	84.6
CC[C@H]1OC(=O)[C@H](C)[C@@H](O[C@H]2C[C@@](C)(OC)[C@@H](O)[C@H](C)O2)[C@H](C)[C@@H](O[C@@H]2O[C@H](C)C[C@H](N(C)C)[C@H]2O)[C@](C)(O)C[C@@H](C)/C(=N\OCOCCOC)[C@H](C)[C@@H](O)[C@]1(C)O	107	98.1	109	108	111	87.4	94.6	97.5	96.9	87.9	95.6	95.3	89	95.1	95.3	105	83.1	76.7	93.6	85.2	80.5	73.4	103	104	107	116	108	96.3	92.9	103	100	93.8	71.7
CC(C)[C@H](O)C(=O)N[C@@H](C)C(=O)N[C@@H]1C(=O)N(C)CCc2ccccc21	–	–	–	–	–	–	–	–	–	–	–	118	122	127	111	132	82.7	119	110	74	110	107	120	135	116	103	119	94.6	97.5	109	38.1	106	95.7
